Results: publication PMC9645260, “Small-molecule inhibitors of P-Rex guanine-nucleotide exchange factors” (Small GTPases, 2022)
Each block holds one compound with its values, some of them ahead of it.

Tests used:
[1] = system: DOCK2; set-up: method as in PMID 22520755; conditions: cited from earlier work
[2] = biological target: T1, P-Rex1 DHPH domain (Homo sapiens, UniProt Q8TCU6); experiment: Mant-GTP GEF activity assay; assay type: biochemical; conditions: 10 µM
T1 construct: 100 nM EE-P-Rex1 DHPH domains (PREX-in1, compounds 2–10 and 30–128); made in house; host or cells: Sf9 cells (baculovirus)
T1 sequence (Q8TCU6 49-392 limits assumed): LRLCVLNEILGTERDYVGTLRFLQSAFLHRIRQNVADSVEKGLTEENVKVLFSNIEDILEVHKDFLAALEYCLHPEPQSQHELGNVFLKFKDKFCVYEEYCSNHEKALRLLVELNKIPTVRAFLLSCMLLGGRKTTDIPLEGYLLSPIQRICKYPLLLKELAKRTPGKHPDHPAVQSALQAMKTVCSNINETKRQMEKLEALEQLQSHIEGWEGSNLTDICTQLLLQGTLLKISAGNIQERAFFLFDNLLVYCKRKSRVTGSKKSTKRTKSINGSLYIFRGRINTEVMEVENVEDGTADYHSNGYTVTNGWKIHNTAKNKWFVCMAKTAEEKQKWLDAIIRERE
Method: The mant-GTP GEF activity assay measures the binding of fluorescent 2’/3’-O-(N-Methyl-anthraniloyl)-guanosine-5’-triphosphate (mant)-GTP to Rac, making use of the spectroscopic differences between bound and free mant-GTP. P-Rex1 DHPH domain protein was diluted to 375 nM in exchange buffer (20 mM Tris, pH 7.5 RT, 50 mM NaCl, 200 mM KCl, 4 mM MgCl2, 50 μg/ml fatty-acid-free BSA). The inhibitors PREX-in1 or EHop-016 were diluted to various concentrations in exchange buffer containing 15% DMSO. 4.4 µl P-Rex1 DHPH domain protein were incubated with 1.1 µl PREX-in1 or EHop-016 for 30 min at 30°C, or were mock treated with 1.1 µl vehicle (15% DMSO). 5 μl of the P-Rex1 DHPH / inhibitor mix was then added to 10 µl of a 1.5x reaction mix containing 225 nM bacteria-derived EE-Rac1, 7.5 µM mant-GTP and 15 µM GTP in exchange buffer in a 96-well plate. Final assay concentrations were 150 nM EE-Rac1, 100 nM P-Rex1 DHPH domain, 5 μM mant-GTP, 10 µM GTP, […] fatty-acid-free BSA, 1% DMSO, and the indicated concentrations of inhibitor. Mant-GTP fluorescence was measured in real time in a PHERAstar 384-well fluorescence plate reader at 25°C for 40 min using 360 nm excitation and 440 nm emission.

[3] = system: Rac-dependent cell responses; set-up: method as in PMID 22383527; conditions: lamellipodia formation and migration; cited from earlier work
[4] = biological target: T2, full-length P-Rex1 (Homo sapiens, UniProt Q8TCU6); experiment: Liposome-based GEF activity assay, PIP3-stimulated full-length P-Rex1; assay type: biochemical; conditions: 200 µM, pilot experiments, EE-Rac2 substrate
T2 construct: Full-length N-terminally EE-tagged P-Rex1, P-Rex2, the P-Rex1 DH and DHPH domains and the P-Rex2 DH domain were produced in Sf9 cells; made in house; host or cells: Sf9 cells (baculovirus)
T2 sequence (Q8TCU6 whole entry, the tested form may be a part): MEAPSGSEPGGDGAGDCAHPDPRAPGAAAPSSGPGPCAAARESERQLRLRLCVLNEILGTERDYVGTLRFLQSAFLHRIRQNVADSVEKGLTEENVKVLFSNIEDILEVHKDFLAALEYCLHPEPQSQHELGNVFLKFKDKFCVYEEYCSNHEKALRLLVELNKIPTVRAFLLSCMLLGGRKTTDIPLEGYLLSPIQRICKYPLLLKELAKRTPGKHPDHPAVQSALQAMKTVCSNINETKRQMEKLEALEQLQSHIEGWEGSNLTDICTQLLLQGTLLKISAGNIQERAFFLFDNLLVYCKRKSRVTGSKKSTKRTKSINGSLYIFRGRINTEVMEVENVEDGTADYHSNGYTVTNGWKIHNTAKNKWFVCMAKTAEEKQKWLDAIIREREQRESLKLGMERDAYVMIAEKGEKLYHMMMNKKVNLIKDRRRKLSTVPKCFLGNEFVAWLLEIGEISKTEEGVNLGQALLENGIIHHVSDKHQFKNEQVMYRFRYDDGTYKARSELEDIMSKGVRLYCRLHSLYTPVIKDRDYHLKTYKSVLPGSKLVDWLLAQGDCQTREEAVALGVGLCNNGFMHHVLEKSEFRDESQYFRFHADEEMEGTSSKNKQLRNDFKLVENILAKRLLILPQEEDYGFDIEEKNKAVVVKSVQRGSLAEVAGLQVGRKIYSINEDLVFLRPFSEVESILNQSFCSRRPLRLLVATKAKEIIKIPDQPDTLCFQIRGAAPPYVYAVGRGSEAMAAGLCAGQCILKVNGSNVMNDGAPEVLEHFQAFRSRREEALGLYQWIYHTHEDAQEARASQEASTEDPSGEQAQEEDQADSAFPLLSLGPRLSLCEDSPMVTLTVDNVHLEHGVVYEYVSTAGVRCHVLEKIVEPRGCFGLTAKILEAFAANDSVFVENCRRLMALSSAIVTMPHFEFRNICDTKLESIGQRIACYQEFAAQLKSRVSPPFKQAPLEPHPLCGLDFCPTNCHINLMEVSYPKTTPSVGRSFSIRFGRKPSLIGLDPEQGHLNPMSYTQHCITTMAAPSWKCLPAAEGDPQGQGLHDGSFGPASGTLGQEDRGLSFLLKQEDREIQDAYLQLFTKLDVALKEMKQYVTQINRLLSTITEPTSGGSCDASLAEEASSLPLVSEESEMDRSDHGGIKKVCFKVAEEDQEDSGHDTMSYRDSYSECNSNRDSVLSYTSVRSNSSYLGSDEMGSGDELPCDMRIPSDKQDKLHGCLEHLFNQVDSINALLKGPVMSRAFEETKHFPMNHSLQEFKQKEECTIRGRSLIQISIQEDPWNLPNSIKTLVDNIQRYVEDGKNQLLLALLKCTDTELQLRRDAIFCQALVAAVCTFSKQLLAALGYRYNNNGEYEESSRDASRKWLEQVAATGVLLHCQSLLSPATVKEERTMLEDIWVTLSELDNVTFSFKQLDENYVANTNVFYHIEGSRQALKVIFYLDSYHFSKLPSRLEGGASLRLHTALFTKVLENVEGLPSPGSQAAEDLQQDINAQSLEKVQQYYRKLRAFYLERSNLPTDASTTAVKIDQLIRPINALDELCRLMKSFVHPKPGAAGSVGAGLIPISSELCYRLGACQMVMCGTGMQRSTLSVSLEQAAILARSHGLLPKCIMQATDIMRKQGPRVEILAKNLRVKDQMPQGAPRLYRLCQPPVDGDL
Source text: All small GTPases and GEFs used were human recombinant proteins. EE-Rac1, EE-Rac2, GST-Cdc42 or GST-RhoA were expressed in Sf9 cells by baculoviral transduction and purified using their epitope tag in their post-translationally prenylated form using Triton X-114 phase separation, essentially as previously described. Briefly, frozen pellets from a 1 litre culture of Sf9 cells transduced with high-titre baculovirus expressing the small GTPase were resuspended in ice-cold Sf9-cell lysis buffer 1 (1x PBS, 40 mM HEPES pH 7.5 at RT, 5 mM MgCl2, 10 mM EGTA, 300 µM GDP, 1 mM DTT, 200 µM PMSF, 20 μg/ml each of leupeptin, pepstatin A, aprotinin and antipain) and lysed by sonication. Triton X-114 was added (to 1% final concentration), and samples were ultracentrifuged at 118,000 × g for 50 min at 4°C. The supernatant was warmed at 37°C until cloudy (30–60 seconds) and centrifuged at 1300 × g for 2 min at 37°C. The upper phase containing non-lipid modified GTPase was discarded and replaced with ice-cold Sf9-cell lysis buffer. The warming/centrifugation steps were repeated twice and lipid-modified GTPase resuspended in ice-cold Sf9-cell lysis buffer 1 supplemented with Triton X-100 (1% final concentration), followed by ultracentrifugation at 118,000 × g for 50 min at 4°C. For EE-tagged GTPases, supernatants were incubated with anti-EE antibody covalently coupled to protein G-Sepharose beads (anti-EE beads, Onyx Pharmaceuticals) and incubated with end-over-end rotation for 90 min on ice. Beads were washed 3 times in wash buffer (PBS, 5 mM MgCl2, 1 mM DTT, 10 μM GDP, 1 mM EGTA, 0.2% Triton X-100) and 5x in elution buffer (40 mM HEPES pH 7.5, 150 mM NaCl, 5 mM MgCl2, 1 mM EGTA, 1 mM DTT, 10 µM GDP). Protein was eluted by three incubations with elution buffer containing peptide Ac-EEYMPME (Activotec, Comberton, UK) and cholate (first 1%, then twice 0.5%) for 20 min on ice. For GST-tagged GTPases, supernatants were incubated with glutathione Sepharose beads and were eluted with glutathione in the same manner. Proteins were concentrated in a YM-10 Centricon (Millipore) at 5000 × g, 4°C. Protein concentration and purity was determined by coomassie staining of SDS-PAGE gels. For use in the mant-GTP assay, EE-Rac 1 was expressed in BL21 (DE3) bacteria (NEB, C25271), by induction with 0.5 mM IPTG overnight at 18°C. Bacterial pellets from 500 ml cultures were resuspended in 20 ml bacterial lysis buffer (40 mM Hepes, pH 7.5 at 4°C, 150 mM NaCl, 1% Triton X-100, 5 mM MgCl2, 1 mM DTT, 300 μM GDP, 200 µM PMSF, and 20 μg/ml each of leupeptin, pepstatin A, aprotinin and antipain) and were lysed by sonication. 5 μg/ml DNAse and 5 μg/ml RNAse were added and the lysate incubated on ice for 10 min. […]

[5] = system: HEK-293 cells; experiment: Cell cycle stages by propidium iodide flow cytometry; assay type: cell-based; conditions: 24 h treatment, 10 µM
Method: Human embryonic kidney 293 (HEK-293) cells were grown at 37°C in a humidified 5% CO2 atmosphere in Dulbecco’s modified Eagle medium (DMEM, Gibco) supplemented with 10% foetal bovine serum (FBS), 100 units/ml penicillin and 100 µg/ml streptomycin. Cells were passaged by tryptic digest 1:4 approximately every 2 days. To measure cell cycle stages, 2 ml HEK293 cells were plated per well of a 6-well dish (Thermo Scientific, Nunc) at 10^5 cells/ml. After 24 h, the medium was replaced with fresh medium containing various concentrations of PREX-in1, as indicated, or 10 μM NSC23766, or vehicle control (0.1% DMSO), and cells were incubated for a further 24 h. The medium was removed but kept aside to recover any detached cells. Wells were washed with PBS, and cells recovered by trypsinization. Cell suspensions were pooled with the culture supernatant and centrifuged at 433 × g for 5 min at RT. Cells were washed in PBS, resuspended in ice-cold 70% ethanol/PBS, and incubated for 30 min at 4°C for fixation and permeabilization. Cells were washed once more in PBS, then stained with 50 µg/ml propidium iodide in PBS containing 100 µg/ml RNase for 30 min at 37°C. Cells were analysed by flow cytometry for the intensity of propidium iodide staining using a FACSCalibur flow cytometer. 10,000 cells were analysed per sample. Data analysis was done using FloJo software.

[6] = system: TrioN; set-up: method as in PMID 15128949; conditions: cited from earlier work
[7] = system: Tiam1; set-up: method as in PMID 15128949; conditions: cited from earlier work

SMILES: O=C1NN(c2ccccc2)C(=O)/C1=C/C=C/c1ccccc1Cl [CPYPP]
IC50 [1]: 22.8 µM

effect on P-Rex1 DHPH-dependent mant-GTP loading of Rac1 [2]: did not affect
SMILES: CCn1c2ccccc2c2cc(Nc3ccnc(NCCCN4CCOCC4)n3)ccc21 [EHop-016, reference compound]
IC50 for blocking Rac-dependent cell responses [3]: low micromolar

SMILES: CCN(CC)CCCC(C)Nc1nc(C)cc(Nc2ccc3nc(C)cc(N)c3c2)n1 (stereo not shown) [NSC23766, reference compound]
effect on PIP3-stimulated Rac-GEF activity of full-length P-Rex1 [4]: did not appear to inhibit | cell death (sub-G1 phase) [5]: caused cell death to a similar extent | IC50 [6]: ~50 µM | IC50 [7]: ~50 µM
